Values quoted from earlier work in patent US7815920B2, “Method of preparing an antigen-containing formulation” (Allergy Therapeutics (UK) Ltd, priority 1998, dated 2010).

Conditions: for Water Solubility: at 25° C.

SMILES | solubility in water (in words) | Water Solubility
NCCCC[C@H](N)C(=O)O [lysine] | quite soluble in water | very
N[C@@H](Cc1c[nH]cn1)C(=O)O [histidine] | – | 4.2 g/100 ml H2O
NC(=O)C[C@H](N)C(=O)O [asparagine] | – | 3.5 g/100 ml H2O
CC(C)[C@H](N)C(=O)O [valine] | – | 8.9 g/100 ml H2O
CSCC[C@H](N)C(=O)O [methionine] | – | 3.4 g/100 ml H2O
CC(C)C[C@H](N)C(=O)O [leucine] | – | 2.4 g/100 ml H2O
NC(=O)CC[C@H](N)C(=O)O [glutamine] | – | 3.7 g/100 ml H2O
N[C@@H](CS)C(=O)O [cysteine] | quite soluble in water | very
CC[C@H](C)[C@H](N)C(=O)O [isoleucine] | – | 4.1 g/100 ml H2O
C[C@H](N)C(=O)O [alanine] | – | 16.7 g/100 ml H2O
N[C@@H](Cc1c[nH]c2ccccc12)C(=O)O [tryptophan] | – | 1.1 g/100 ml H2O
N[C@@H](Cc1ccccc1)C(=O)O [phenylalanine] | – | 3.0 g/100 ml H2O
